In this test the test system is Spodoptera littoralis. Kind of test: Antifeedant activity against Spodoptera littoralis using glass-fibre disks at 100 ppm measured after 18 hr by binary choice feeding bioassay relative to control. The test is classed as functional.
With `C[C@@H]1CC(=O)[C@@]23COC(=O)C2=CCC[C@@H]3[C@@]12C[C@@H](c1ccoc1)OC2=O` [TEUSCORDINON], the AFI is on record as 55.7%.
For `C[C@@H]1C[C@@H](O)[C@@]2(CO)C(CO)=C[C@@H](O)C[C@@H]2[C@@]12C[C@@H](c1ccoc1)OC2=O` [19-DEACETYLTEUSCORODOL], the AFI is on record as -54.5%.
The same measure for `C[C@@H]1C[C@@H](O)[C@@]23CO[C@]2(CO)CCC[C@@H]3[C@@]12C[C@@H](c1ccoc1)OC2=O` [MONTANIN D]: 82.1%; for `C[C@@H]1C[C@@H](O)[C@@]23COC(=O)C2=CCC[C@@H]3[C@@]12C[C@@H](c1ccoc1)OC2=O` [6BETA-HYDROXYTEUSCORDIN]: 73.1%; for `C[C@@H]1C[C@@H](O)[C@@]23COC(=O)C2=C[C@@H](O)C[C@@H]3[C@@]12C[C@@H](c1ccoc1)OC2=O` [TEUGIN]: 11.1%.
The same measure for `CC(=O)OC[C@@]12CCC[C@@H]3[C@@]4(C[C@@H](c5ccoc5)OC4=O)[C@H](C)C[C@@H](OC(C)=O)[C@]31CO2` [DIACETYLMONTANIN D]: 34.6%; for `C[C@@H]1C[C@@H](O)[C@@]23COC(=O)C2C[C@@H](O)C[C@@H]3[C@@]12C[C@@H](c1ccoc1)OC2=O` (some centres undefined) [DIHYDROTEUGIN]: -1.2%.
The same measure for `C[C@@H]1C[C@@H]2OC(=O)C3=C2[C@H](CCC3)[C@@]12C[C@@H](c1ccoc1)OC2=O` [TEUCVIN]: 52.2%; for `C[C@@H]1C[C@@H]2OC(=O)C3=C2[C@H](CC[C@@H]3O)[C@@]12C[C@@H](c1ccoc1)OC2=O` [ISOTEUFLIFIN]: 11%.

For the origin of these results see ChEMBL document CHEMBL3046185, “Antifeedant activity of neo-clerodane diterpenoids from Teucrium arduini” (2002).
